# Laboratory results taken from patent US4275065A, “Modulating the immune response with 2-substituted-3-hydroxythiazolo[2,3-b]b e” (American Home Products Corporation, priority 1980, dated 1981).
# Experiments:
# [1] = tested on: autoimmune disease (systemic lupus erythematosus); test: autoimmune disease (systemic lupus erythematosus), immunoglobulin determinations, female NZB/W mice; type: in vivo, female NZB/W F1 mice; conditions: A 100 mg/kg, levamisole 25 mg/kg, i.p. twice weekly
# Description: (§1) The effect of the compounds of the invention on the development and progress of autoimmune disease (systemic lupus erythematosus) in the New Zealand F1 hydrid mouse (NZB×NZW) is evaluated. NZB/W F1 mice are divided into two groups according to sex. […] IgG, IgM and antinuclear antibody determinations are made on pooled samples of serum obtained by capillary bleedings of the suborbital sinus at approximately monthly intervals. The compounds of the invention are suspended in a solution of physiological saline with 0.16% CMC. All dosing is twice weekly intraperitonially. […] Immunoglobulin values from serum samples are compared with the baseline (pretreatment) for each group.
# [2] = tested on: established adjuvant arthritis (left paw edema); test: established adjuvant arthritis, therapeutic peroral administration; type: in vivo, male Lewis strain rats; conditions: therapeutic p.o., * = p < 0.05
# [3] = tested on: murine Lewis lung carcinoma; test: metastatic spread of murine Lewis lung carcinoma implanted subcutaneously; type: in vivo
# Description: The ability of the compounds of the invention to influence the growth and metastatic spread of murine Lewis lung carcinoma implanted subcutaneously,is evaluated.
# The procedures employed for stock tumor maintenance and transfer, as well as for drug evaluation on the primary tumor, are those found in Cancer Chemotherapy Reports, Vol. 3, No. 2, September 1972, Protocol 1.400. The measurements of metastic spread are made by counting tumor foci on the excised lung under an illuminated magnifying lens or a dissecting microscope, after employment of the Wexler india ink technique (Hilda Wexler, "Accurate Identification of Experimental Pulmonary Metastases", J. Nat. Can. Inst., Volume 36, No. 4, April 1966, pp. 641-643) to accurately identify and count lung metasteses.
# [4] = tested on: autoimmune disease (systemic lupus erythematosus); test: autoimmune disease (systemic lupus erythematosus), immunoglobulin determinations, male NZB/W mice; type: in vivo, male NZB/W F1 mice; conditions: A 100 mg/kg, levamisole 25 mg/kg, i.p. twice weekly
# Description: as §1
# [5] = tested on: adjuvant arthritis (left paw edema); test: adjuvant arthritis test, prophylactic peroral administration; type: in vivo, male Lewis strain rats; conditions: prophylactic p.o.
# [6] = tested on: antibody-secreting plaque-forming splenocytes (IgG and IgM); test: Cunningham modification of the Jerne assay (hemolytic plaque technique), IgM and IgG plaques per spleen; type: in vivo, CDF1 (Balb/c × DBA/2) mice; conditions: 100 mg/kg
# Description: In this example, the compounds of the invention are tested for their effect on antibody-secreting plaque-forming splenocytes (IgG and IgM) in the Cunningham modification of the Jerne assay. This technique is able to detect, in a quantitative manner, antibody producing cells in response to antigen stimulus in the host mouse. For study of […] immune response, sheep erythrocytes (SRBC) are used (as in the present Example), while for humoral immune response, SRBC coupled with pneumococcal polysaccharide is used.
# CDF1 (Balb/c × DBA/2) mice are immunized with 0.1 ml. of 10^8 sheep erythrocytes (SRBC) intraperitonially 4-5 days before the assay. The mice are separated into groups, with one group serving as a control and all other groups receiving compounds of the invention. The treated mice are dosed with drug on day one. […] The spleens of the sacrificed mice are excised and washed several times in RPMI 1640 with 10% fetal bovine serum. 100 λ of spleen cells are mixed with a drop of guinea pig complement, four drops of RPMI 1640 and a drop of 25% SRBC in a microtiter plate well and then pipetted into a Cunningham chamber. On day four, for IgM determinations, the chambers are incubated for 30 minutes at 37° C. Antibody, released by the small proportion of active cells, attaches to the surrounding erythrocytes which are lysed by complement leaving a small plaque up to 0.5 mm. in diameter. Since only cells releasing IgM antibody form plaques directly, a "developing" serum must be added to be able to form and view IgG plaques. Thus fifth or sixth day cultured spleen cells are further treated with rabbit antimouse IgG and then incubated for 45 minutes. Both IgM and IgG plaques are counted under a stereomicroscope.
# In Table 1 are given the IgM and IgG plaque counts per spleen for mice treated with 6-chloro-2-phenylthiazolo[2,3-b]benzothiazol-3(2H)-one mesoionic didehydro derivative and for the controls:
# The assay is repeated using the following compounds of the invention: 2-phenylthiazolo[2,3-b]benzothiazol-3(2H)-one mesoionic didehydro derivative (A), 6-chloro-2-(p-chlorophenyl)-thiazolo[2,3-b]benzothiazol-3(2H)-one mesoionic didehydro derivative (B) and 6-chloro-2-phenylthiazolo[2,3-b]benzothiazol-3(2H)-one mesoionic didehydro derivative (C).
# thymus gland = test: effect on the thymus gland (thymus weight); type: in vivo, BDF1 mice
# Description: The effect of the compounds of the invention on the thymus gland is measured. BDF1 mice of 18-20 gms. weight are dosed at 150 mg/kg. with 6-chloro-2-phenylthiazolo[2,3-b]benzothiazolo-3(2H)-one mesoionic didehydro derivative for eight consecutive days. The mice are sacrificed on the ninth day, the thymus glands excised and weighed. The excised thymus glands averaged […]. as compared to […]. for the control group. […] The weight loss is also correlated to dose, and the results are as follows:
# Using the same technique, the following compounds of the invention were tested: 6-chloro-2-(p-chlorophenyl)thiazolo[2,3-b]benzothiazol-3(2H)-one mesoionic didehydro derivative (A), 2-phenyl-5,6,7,8-tetrahydrothiazolo[2,3-b]benzothiazol-3(2H)-one mesoionic didehydro derivative (B), 2-phenylthiazolo[2,3-b]-benzothiazol-3(2H)-one mesoionic didehydro derivative (C),6-chloro-2-trifluoroacetylthiazolo[2,3-b]benzothiazol-3(2H)-one mesoionic didehydro derivative (D), 6-chloro-3-hydroxy-2-phenylthiazolo[2,3-b]benzothiazolium bromide (E), 7-ethoxy-3-hydroxy-2-phenylthiazolo[2,3-b]benzothiazolium bromide (F), 3-hydroxy-2-phenylthiazolo[2,3-b]benzothiazolium bromide (G), and 3-hydroxy-2-phenyl-5,6,7,8-tetrahydrothiazolo[2,3-b]benzothiazolium bromide (H).
# [7] = tested on: delayed hypersensitivity reaction; test: guinea pig delayed hypersensitivity assay (PPD); type: in vivo, Male Hartley strain guinea pigs; conditions: 50 mg/kg orally, read 24 hours after challenge, * = p < 0.05
# [8] = 150 mg/kg, eight days, in words
smiles,measurement,setting,value
"[O-]c1c(-c2ccccc2)sc2sc3ccc(Cl)cc3[n+]12 [Example 3, 6-Chloro-2-phenylthiazolo[2,3-b]benzothiazol-3(2H)-one mesoionic didehydro derivative]","ANA (antinuclear antibody), Highest Dilution Positive",[1]; 47 Days,neg.
same,IgG level,[1]; 47 Days,234 mg./100 ml.
same,IgM level,[1]; 47 Days,49 mg./100 ml.
same,"ANA (antinuclear antibody), Highest Dilution Positive",[1]; 76 Days,neg.
same,IgG level,[1]; 76 Days,220 mg./100 ml.
same,IgM level,[1]; 76 Days,54 mg./100 ml.
same,"ANA (antinuclear antibody), Highest Dilution Positive",[1]; 111 Days,neg.
same,IgG level,[1]; 111 Days,496 mg./100 ml.
same,IgM level,[1]; 111 Days,148 mg./100 ml.
same,"ANA (antinuclear antibody), Highest Dilution Positive",[1]; 154 Days,neg.
same,IgG level,[1]; 154 Days,420 mg./100 ml.
same,IgM level,[1]; 154 Days,108 mg./100 ml.
same,IgG Total Change From Baseline,[1],-40 mg./100 ml.
same,IgM Total Change From Baseline,[1],+44 mg./100 ml.
same,IgG level,[1]; Pretreatment,460 mg./100 ml.
same,IgM level,[1]; Pretreatment,64 mg./100 ml.
same,Mean % Inhibition of Left Paw Edema,"[2]; 4th day of dosing, 12.5 mg/kg",94%
same,Mean % Inhibition of Left Paw Edema,"[2]; 4th day of dosing, 50 mg/kg",67%
same,Mean % Inhibition of Left Paw Edema,"[2]; 7th day of dosing, 12.5 mg/kg",66%
same,Mean % Inhibition of Left Paw Edema,"[2]; 7th day of dosing, 50 mg/kg",58%
same,Average Number of Metastases,[3]; 25 mg/kg,10.8
same,Average Number of Metastases,[3]; 50 mg/kg,15.3
same,Average Number of Metastases,[3]; 100 mg/kg,38.4
same,Average Number of Metastases,[3]; 150 mg/kg,81.3
same,Average Number of Metastases,[3]; 300 mg/kg,99.1
same,"ANA (antinuclear antibody), Highest Dilution Positive",[4]; 47 Days,neg.
same,IgG level,[4]; 47 Days,234 mg./100 ml.
same,IgM level,[4]; 47 Days,48 mg./100 ml.
same,"ANA (antinuclear antibody), Highest Dilution Positive",[4]; 76 Days,neg.
same,IgG level,[4]; 76 Days,240 mg./100 ml.
same,IgM level,[4]; 76 Days,49 mg./100 ml.
same,"ANA (antinuclear antibody), Highest Dilution Positive",[4]; 111 Days,neg.
same,IgG level,[4]; 111 Days,240 mg./100 ml.
same,IgM level,[4]; 111 Days,80 mg./100 ml.
same,"ANA (antinuclear antibody), Highest Dilution Positive",[4]; 154 Days,neg.
same,IgG level,[4]; 154 Days,324 mg./100 ml.
same,IgM level,[4]; 154 Days,96 mg./100 ml.
same,IgG Total Change From Baseline,[4],-126 mg./100 ml.
same,IgM Total Change From Baseline,[4],+52.5 mg./100 ml.
same,IgG level,[4]; Pretreatment,450 mg./100 ml.
same,IgM level,[4]; Pretreatment,43.5 mg./100 ml.
same,Mean % Inhibition of Left Paw Edema,[5]; 10 mg/kg,32%
same,Mean % Inhibition of Left Paw Edema,"[5]; 25 mg/kg, * = p < 0.05?",41%
same,Mean % Inhibition of Left Paw Edema,"[5]; 50 mg/kg, * = p < 0.05?",63%
same,"IgG plaques, mean (total number of plaques per spleen)",[6]; Day 4,"37,087 plaques per spleen"
same,"IgM plaques, mean (total number of plaques per spleen)",[6]; Day 4,"63,993 plaques per spleen"
same,"IgG plaques, mean (total number of plaques per spleen)",[6]; Day 6,"152,745 plaques per spleen"
same,"IgM plaques, mean (total number of plaques per spleen)",[6]; Day 6,"39,679 plaques per spleen"
same,Thymus weight,thymus gland; 12.5 mg/kg,55.3 mg
same,Thymus weight,thymus gland; 50 mg/kg,46 mg
same,Thymus weight,thymus gland; 100 mg/kg,11.8 mg
same,Thymus weight,"thymus gland; 150 mg/kg, eight consecutive days, ninth day",21.8 mg
same,Histopathological examination of the treated thymus glands,thymus gland; [8],weight loss to be due solely to the depletion of lymphocytes
same,"size of the cervical, axillary, trachial and inguinal lymph nodes",thymus gland; [8],some reduction in the size
same,Thymus weight,thymus gland; 200 mg/kg,20.5 mg
same,recovery of thymus weight and histopathological status,"thymus gland; after resting for three weeks, in words",return to normal weight and histopathological status
same,Mean % Inhibition of Paw Edema,[7]; 6 hours after challenge,41%
same,Mean % Inhibition of Paw Edema,[7]; 24 hours before challenge,43%
